From PubChem BioAssay (NCI)
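GI50 is the concentration that inhibits growth by half. TGI denotes the concentration required for complete inhibition of growth.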

How the values were obtained:
Experiment in all cases: growth of human tumour cells (NCI), 384-well format
[1] = test system: OVCAR-5 ovarian
[2] = test system: MCF7 breast
[3] = test system: DU-145 prostate
[4] = test system: NCI-H23 lung
[5] = test system: HCT-15 colon
[6] = test system: CCRF-CEM leukemia
[7] = test system: UACC-62 melanoma
[8] = test system: MALME-3M melanoma
[9] = test system: T-47D breast
[10] = test system: SK-MEL-2 melanoma
[11] = test system: A549 NSCLC
[12] = test system: BT-549 breast
[13] = test system: RXF 393 renal
[14] = test system: HCT-116 colon
[15] = test system: MDA-MB-468 breast
[16] = test system: CAKI-1 renal
[17] = test system: MOLT-4 leukemia
[18] = test system: SW-620 colon
[19] = test system: SNB-19 CNS
[20] = test system: SK-MEL-5 melanoma
[21] = test system: COLO 205 colon
[22] = test system: NCI-H460 NSCLC
[23] = test system: NCI-H522 lung
[24] = test system: NCI-H322M lung
[25] = test system: EKVX NSCLC
[26] = test system: HL-60(TB) leukemia
[27] = test system: HOP-92 NSCLC
[28] = test system: M14 melanoma
[29] = test system: OVCAR-4 ovarian
[30] = test system: SF-295 CNS
[31] = test system: RPMI-8226 leukemia
[32] = test system: U251 glioblastoma
[33] = test system: ACHN renal
[34] = test system: PC-3 prostate
[35] = test system: SK-MEL-28 melanoma
[36] = test system: UO-31 renal
[37] = test system: HS 578T breast
[38] = test system: LOX IMVI melanoma
[39] = test system: SF-268 CNS
[40] = test system: HT29 colon
[41] = test system: K-562 leukemia
[42] = test system: HCC-2998 colon
[43] = test system: 786-0 renal
[44] = test system: SNB-75 CNS
[45] = test system: UACC-257 melanoma
[46] = test system: NCI/ADR-RES ovarian
[47] = test system: TK-10 renal

**Q.** Which GI50 [1] does the source give for `CC(F)(F)c1cc(F)ccc1-c1sc2cc(O)ccc2c1Oc1ccc(/C=C/C(=O)O)cc1` here?
**A.** 18.2 µM

**Q.** And the TGI [1]?
**A.** 33.6 µM

**Q.** What about the TGI [2] of the same molecule?
**A.** 14 µM

**Q.** What about the GI50 [3] of the same molecule?
**A.** 17.4 µM

**Q.** What about the TGI [3] of the same molecule?
**A.** 42.3 µM

**Q.** What about the GI50 [4] of the same molecule?
**A.** 16.3 µM

**Q.** And the TGI [4]?
**A.** 30.7 µM

**Q.** And the GI50 [5]?
**A.** 11.3 µM

**Q.** What about the TGI [5] of the same molecule?
**A.** 24 µM

**Q.** What about the GI50 [6] of the same molecule?
**A.** 12.6 µM

**Q.** What about the TGI [6] of the same molecule?
**A.** 25.2 µM

**Q.** What about the GI50 [7] of the same molecule?
**A.** 9.94 µM

**Q.** And the TGI [7]?
**A.** 21.6 µM

**Q.** And the GI50 [8]?
**A.** 13.5 µM

**Q.** What about the TGI [8] of the same molecule?
**A.** 27.8 µM

**Q.** And the GI50 [9]?
**A.** 11.2 µM

**Q.** What about the TGI [9] of the same molecule?
**A.** 25.9 µM

**Q.** What about the GI50 [10] of the same molecule?
**A.** 13.6 µM

**Q.** What about the TGI [10] of the same molecule?
**A.** 28.9 µM

**Q.** What about the GI50 [11] of the same molecule?
**A.** 13.8 µM

**Q.** What about the TGI [11] of the same molecule?
**A.** 31.2 µM

**Q.** What about the GI50 [12] of the same molecule?
**A.** 12.8 µM

**Q.** What about the TGI [12] of the same molecule?
**A.** 26.7 µM

**Q.** And the GI50 [13]?
**A.** 5 µM

**Q.** What about the TGI [13] of the same molecule?
**A.** 18.5 µM

**Q.** What about the GI50 [14] of the same molecule?
**A.** 15.6 µM

**Q.** And the TGI [14]?
**A.** 30.5 µM

**Q.** What about the GI50 [15] of the same molecule?
**A.** 11.7 µM

**Q.** And the TGI [15]?
**A.** 26.6 µM

**Q.** And the GI50 [16]?
**A.** 15.1 µM

**Q.** What about the TGI [16] of the same molecule?
**A.** 29.9 µM

**Q.** And the GI50 [17]?
**A.** 13.3 µM

**Q.** What about the TGI [17] of the same molecule?
**A.** 26.1 µM

**Q.** And the GI50 [18]?
**A.** 16.9 µM

**Q.** And the TGI [18]?
**A.** 30.9 µM

**Q.** What about the GI50 [19] of the same molecule?
**A.** 12.7 µM

**Q.** And the TGI [19]?
**A.** 25.6 µM

**Q.** And the GI50 [20]?
**A.** 12.2 µM

**Q.** And the TGI [20]?
**A.** 24.7 µM

**Q.** And the GI50 [21]?
**A.** 16.5 µM

**Q.** And the TGI [21]?
**A.** 31.7 µM

**Q.** And the GI50 [22]?
**A.** 17.6 µM

**Q.** And the TGI [22]?
**A.** 31.8 µM

**Q.** What about the GI50 [23] of the same molecule?
**A.** 8.38 µM

**Q.** And the TGI [23]?
**A.** 21.3 µM

**Q.** And the GI50 [24]?
**A.** 14.4 µM

**Q.** What about the TGI [24] of the same molecule?
**A.** 33.6 µM

**Q.** And the GI50 [25]?
**A.** 16.9 µM

**Q.** What about the TGI [25] of the same molecule?
**A.** 37.9 µM

**Q.** And the GI50 [26]?
**A.** 14.6 µM

**Q.** What about the TGI [26] of the same molecule?
**A.** 27.8 µM

**Q.** And the GI50 [27]?
**A.** 16.1 µM

**Q.** What about the TGI [27] of the same molecule?
**A.** 35.3 µM

**Q.** And the GI50 [28]?
**A.** 11.6 µM

**Q.** What about the TGI [28] of the same molecule?
**A.** 25.8 µM

**Q.** And the GI50 [29]?
**A.** 19.5 µM

**Q.** And the TGI [29]?
**A.** 74.9 µM

**Q.** What about the GI50 [30] of the same molecule?
**A.** 7.72 µM

**Q.** And the TGI [30]?
**A.** 21.6 µM

**Q.** What about the GI50 [31] of the same molecule?
**A.** 11 µM

**Q.** What about the TGI [31] of the same molecule?
**A.** 23.2 µM

**Q.** What about the GI50 [32] of the same molecule?
**A.** 12.6 µM

**Q.** And the TGI [32]?
**A.** 25.3 µM

**Q.** What about the GI50 [33] of the same molecule?
**A.** 17 µM

**Q.** And the TGI [33]?
**A.** 37.8 µM

**Q.** What about the GI50 [34] of the same molecule?
**A.** 13.9 µM

**Q.** What about the TGI [34] of the same molecule?
**A.** 28.1 µM

**Q.** What about the GI50 [35] of the same molecule?
**A.** 11.5 µM

**Q.** And the TGI [35]?
**A.** 32.9 µM

**Q.** What about the GI50 [36] of the same molecule?
**A.** 12.4 µM

**Q.** What about the TGI [36] of the same molecule?
**A.** 26.3 µM

**Q.** And the GI50 [37]?
**A.** 10.2 µM

**Q.** And the TGI [37]?
**A.** 22 µM

**Q.** And the GI50 [38]?
**A.** 13.5 µM

**Q.** What about the TGI [38] of the same molecule?
**A.** 26.7 µM

**Q.** And the GI50 [39]?
**A.** 16.7 µM

**Q.** What about the TGI [39] of the same molecule?
**A.** 37.2 µM

**Q.** And the GI50 [40]?
**A.** 16.2 µM

**Q.** What about the TGI [40] of the same molecule?
**A.** 31.4 µM

**Q.** What about the GI50 [41] of the same molecule?
**A.** 10.9 µM

**Q.** What about the TGI [41] of the same molecule?
**A.** 24.4 µM

**Q.** And the GI50 [42]?
**A.** 18.2 µM

**Q.** And the TGI [42]?
**A.** 32.3 µM

**Q.** What about the GI50 [43] of the same molecule?
**A.** 14.6 µM

**Q.** What about the TGI [43] of the same molecule?
**A.** 33.4 µM

**Q.** And the GI50 [44]?
**A.** 15.5 µM

**Q.** And the TGI [44]?
**A.** 33 µM

**Q.** And the GI50 [45]?
**A.** 17 µM

**Q.** What about the TGI [45] of the same molecule?
**A.** 36.4 µM

**Q.** What about the GI50 [46] of the same molecule?
**A.** 16.5 µM

**Q.** What about the TGI [46] of the same molecule?
**A.** > 100 µM

**Q.** What about the GI50 [47] of the same molecule?
**A.** 22.9 µM

**Q.** What about the TGI [47] of the same molecule?
**A.** 61.6 µM
